Laboratory results reported in US5627203A, “Tricyclic oxime ethers” (Adir et Compagnie, priority 1994, dated 1997).

Columns and labels:
serotonin reuptake site = molecular target: T1, serotonin reuptake site (Rattus norvegicus, UniProt P31652); experiment: Displacement of 3H-paroxetine at the serotonin reuptake site; type: binding; settings: rat brain without cerebellum, read-out: IC50, serotonin reuptake sites
T1 construct: rat brain from which the cerebellum has been removed; from tissue; host or cells: rat brain without cerebellum
Description: (§1) A-2: Study of the binding of the compounds of the invention to the serotonin reuptake site as well as to 5-HT1, 5-HT1A, 5-HT1B, 5-HT1D, 5-HT2, 5-HT2C, 5-HT4 serotoninergic receptors.
(§2) The binding of the compounds of the invention is measured in accordance with conventional methods.
for the serotonin reuptake site, by the displacement of ^3 H-paroxetinein rat brain from which the cerebellum has been removed, […]

5-HT1 receptors = experiment: Displacement of 5-OH tryptamine at 5-HT1 receptors; type: binding; settings: pig frontal cortex and striatum
Description: as §1, §2
for 5-HT1 receptors, by the displacement of 5-OH tryptamine in pig frontal cortex and striatum, […]

5-HT1A receptors = molecular target: T2, 5-HT1A receptors (Rattus norvegicus, UniProt P19327); experiment: Displacement of 8-OH-DPAT at 5-HT1A receptors; type: binding; settings: rat hippocampus homogenates
T2 construct: rat hippocampus homogenates; from tissue; host or cells: rat hippocampus
T2 sequence (P19327 1-422): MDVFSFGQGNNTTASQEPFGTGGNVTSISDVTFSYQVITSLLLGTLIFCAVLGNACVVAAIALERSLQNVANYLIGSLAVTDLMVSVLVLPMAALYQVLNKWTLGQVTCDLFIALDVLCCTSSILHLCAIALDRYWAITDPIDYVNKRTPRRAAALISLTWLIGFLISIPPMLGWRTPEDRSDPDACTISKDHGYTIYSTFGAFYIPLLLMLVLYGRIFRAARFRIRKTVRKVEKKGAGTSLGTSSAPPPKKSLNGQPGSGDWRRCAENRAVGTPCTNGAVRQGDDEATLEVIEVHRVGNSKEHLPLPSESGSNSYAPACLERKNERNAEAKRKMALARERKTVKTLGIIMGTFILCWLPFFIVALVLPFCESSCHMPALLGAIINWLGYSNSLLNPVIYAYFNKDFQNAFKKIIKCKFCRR
Description: as §1, §2
for 5-HT1A receptors, by the displacement of 8-OH-DPAT in rat hippocampus homogenates, […]

5-HT1B receptors = molecular target: T3, 5-HT1B receptors (Rattus norvegicus, UniProt P28564); experiment: Displacement of 5-hydroxytryptamine at 5-HT1B receptors; type: binding; settings: rat cortex, striatum, and globus pallidus homogenates
T3 construct: rat cortex, striatum, and globus pallidus homogenates; from tissue; host or cells: rat cortex, striatum and globus pallidus
Description: as §1, §2
for 5-HT1B receptors, by the displacement of 5-hydroxytryptamine in rat cortex, striatum, and globus pallidus homogenates, […]

5-HT1D receptors = experiment: Displacement of 5-OH-tryptamine at 5-HT1D receptors; type: binding; settings: rat cortex, striatum and globus pallidus homogenates
Description: as §1, §2
for 5-HT1D receptors, by the displacement of 5-OH-tryptamine in rat cortex, striatum and globus pallidus homogenates, […]

5-HT2 receptors = molecular target: T4, 5-HT2 receptors (Rattus norvegicus, UniProt P14842); experiment: Displacement of aminoiodoketaneserine at 5-HT2 receptors; type: binding; settings: rat frontal cortex homogenates
T4 construct: rat frontal cortex homogenates; from tissue; host or cells: rat frontal cortex
Description: as §1, §2
for 5-HT2 receptors, by the displacement of aminoiodoketaneserine in rat frontal cortex homogenates, […]

5-HT2C receptors = molecular target: T5, 5-HT2C receptors (Rattus norvegicus, UniProt P08909); experiment: Displacement of N-methylmesulergine at 5-HT2C receptors; type: binding; settings: rat frontal cortex and hippocampus homogenates
T5 construct: rat frontal cortex and hippocampus homogenates; from tissue; host or cells: rat frontal cortex and hippocampus
T5 sequence (P08909 33-460): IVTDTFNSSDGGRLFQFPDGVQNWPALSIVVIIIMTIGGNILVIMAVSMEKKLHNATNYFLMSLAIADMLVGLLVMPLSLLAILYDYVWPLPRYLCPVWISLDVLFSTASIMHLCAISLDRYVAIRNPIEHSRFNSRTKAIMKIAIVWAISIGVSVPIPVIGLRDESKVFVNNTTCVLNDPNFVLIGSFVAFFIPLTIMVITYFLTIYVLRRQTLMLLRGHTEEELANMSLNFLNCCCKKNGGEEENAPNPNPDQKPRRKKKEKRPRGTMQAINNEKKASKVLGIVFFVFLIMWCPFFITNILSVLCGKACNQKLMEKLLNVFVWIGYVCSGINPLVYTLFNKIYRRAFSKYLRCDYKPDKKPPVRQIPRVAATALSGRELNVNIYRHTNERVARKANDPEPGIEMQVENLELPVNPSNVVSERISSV
Description: as §1, §2
for 5-HT2C receptors, by the displacement of N-methylmesulergine in rat frontal cortex and hippocampus homogenates, […]

5-HT3 receptors = molecular target: T6, 5-HT3 receptors (Rattus norvegicus, UniProt P35563); experiment: Displacement of 3H-zacopride at 5-HT3 receptors; type: binding; settings: 0.3-0.4 nM 3H-zacopride, rat area postrema homogenates, pH 7.4, 25° C., 30 minutes
T6 construct: rat area postrema homogenates; from tissue; host or cells: rat area postrema
T6 sequence (P35563 24-483): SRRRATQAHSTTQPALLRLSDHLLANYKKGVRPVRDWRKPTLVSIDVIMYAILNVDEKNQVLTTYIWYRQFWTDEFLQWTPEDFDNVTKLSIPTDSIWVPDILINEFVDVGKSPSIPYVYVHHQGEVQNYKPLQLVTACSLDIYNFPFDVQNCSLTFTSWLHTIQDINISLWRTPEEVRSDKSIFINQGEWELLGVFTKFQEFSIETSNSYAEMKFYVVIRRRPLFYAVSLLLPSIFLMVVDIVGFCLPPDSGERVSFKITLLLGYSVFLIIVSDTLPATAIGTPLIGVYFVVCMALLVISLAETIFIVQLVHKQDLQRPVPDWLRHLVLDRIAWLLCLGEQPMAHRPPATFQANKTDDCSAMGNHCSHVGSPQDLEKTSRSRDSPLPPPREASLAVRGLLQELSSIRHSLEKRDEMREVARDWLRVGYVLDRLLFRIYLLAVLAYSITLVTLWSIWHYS
Description: A-1: Study of the binding of the compounds of the invention to 5-HT3 serotoninergic receptors
The binding of the compounds of the invention to 5-HT3 receptors was determined for each compound by measuring the displacement of ^3 H-zacopride (specific ligand for 5-HT3 receptors) in rat area postrema homogenates.
Aliquot amounts (50-100 μl) of a membrane suspension (2.5-5.0 mg of protein/cm^3) are incubated for 30 minutes at 25° C. in a Tris-HCl buffer, 25 mM, pH 7,4, in the presence of 0.3-0.4 nM 3^H -zacopride (83 ci/mmol) (total volume: 0.5 cm^3). The incubation is terminated by filtering the samples through Whatman GF/B filters which are then washed and dried. The radioactivity retained on the filters is finally calculated by spectrometry in liquid medium (Aquasol). The non-specific binding is evaluated under the same conditions using samples containing in addition 1 μM of ondansetron (5-HT3 antagonist). The displacement curves obtained by adding increasing concentrations of a test compound to the incubation medium are analysed to determine the affinity of the test compounds for 5-HT3 receptors.

mouse = experiment: Anxiolytic activity: illuminated/darkened cages test on the mouse; type: in vivo; settings: 15 mg/kg, i.p. route, 5 minutes
Text: The anxiolytic effects of the compounds of the invention were studied in accordance with the illuminated/darkened cages test on the mouse (Crawley et al. (1981), Pharmacol. Biochem. Behav., 15, pp 695-699).
The test uses two cages of equal size (20×20×14 cm) made of PVC. One is strongly illuminated by a 100 W bulb ("cold" light) and the other is darkened. The two cages are separated from one another by a small opaque tunnel (5×7 cm). The mice are introduced individually into the tunnel and, once they have entered the darkened cage for the first time, a recording is made over a period of 5 minutes, by means of pads connected to a computer, of the time spent by the animals in the illuminated cage as well as the number of transfers between the darkened cage and the illuminated cage. Each experimental group comprises a minimum of 15 animals.

T4 sequence (P14842 whole entry): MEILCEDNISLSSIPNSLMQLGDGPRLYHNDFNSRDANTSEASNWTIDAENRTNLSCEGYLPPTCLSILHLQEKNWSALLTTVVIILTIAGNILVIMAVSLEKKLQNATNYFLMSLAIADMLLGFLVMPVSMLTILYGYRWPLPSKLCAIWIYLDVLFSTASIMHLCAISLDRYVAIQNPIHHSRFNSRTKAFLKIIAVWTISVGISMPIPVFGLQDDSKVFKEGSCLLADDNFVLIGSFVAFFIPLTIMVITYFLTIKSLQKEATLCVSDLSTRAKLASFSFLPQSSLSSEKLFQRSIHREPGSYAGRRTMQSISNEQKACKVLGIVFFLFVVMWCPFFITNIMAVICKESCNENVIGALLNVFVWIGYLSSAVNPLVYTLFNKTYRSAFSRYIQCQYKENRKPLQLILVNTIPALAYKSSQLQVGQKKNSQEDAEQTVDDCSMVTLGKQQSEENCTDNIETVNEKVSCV
T1 sequence (P31652 whole entry): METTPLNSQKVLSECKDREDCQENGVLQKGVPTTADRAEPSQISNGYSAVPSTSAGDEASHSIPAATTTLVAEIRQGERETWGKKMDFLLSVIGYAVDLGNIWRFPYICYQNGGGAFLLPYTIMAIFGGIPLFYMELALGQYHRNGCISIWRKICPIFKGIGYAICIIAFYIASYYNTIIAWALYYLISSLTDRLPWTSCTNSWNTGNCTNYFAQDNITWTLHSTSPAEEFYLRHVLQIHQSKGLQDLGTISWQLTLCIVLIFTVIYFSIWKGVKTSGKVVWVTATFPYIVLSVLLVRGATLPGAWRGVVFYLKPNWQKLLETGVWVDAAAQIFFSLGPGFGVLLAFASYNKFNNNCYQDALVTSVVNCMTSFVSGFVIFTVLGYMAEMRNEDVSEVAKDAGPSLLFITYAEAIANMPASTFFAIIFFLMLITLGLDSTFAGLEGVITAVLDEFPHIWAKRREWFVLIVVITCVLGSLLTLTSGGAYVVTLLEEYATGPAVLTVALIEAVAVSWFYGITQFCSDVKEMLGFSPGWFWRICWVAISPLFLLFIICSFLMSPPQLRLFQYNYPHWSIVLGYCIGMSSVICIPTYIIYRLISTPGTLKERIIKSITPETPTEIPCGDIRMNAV
T3 sequence (P28564 whole entry): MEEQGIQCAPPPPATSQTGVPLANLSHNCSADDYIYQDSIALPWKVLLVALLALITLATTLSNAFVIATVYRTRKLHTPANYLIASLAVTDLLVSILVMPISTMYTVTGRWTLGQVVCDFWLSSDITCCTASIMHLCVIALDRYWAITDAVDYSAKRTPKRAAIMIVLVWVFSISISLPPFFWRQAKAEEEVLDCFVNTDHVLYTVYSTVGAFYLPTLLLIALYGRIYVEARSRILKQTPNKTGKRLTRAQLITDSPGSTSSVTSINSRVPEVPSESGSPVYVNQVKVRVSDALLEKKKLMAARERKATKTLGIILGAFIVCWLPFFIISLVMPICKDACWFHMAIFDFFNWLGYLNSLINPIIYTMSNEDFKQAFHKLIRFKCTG

## Cc1csc2c1-n1cccc1/C2=N/OCC(C)N(C)C (stereo not shown) [Example 22]
Serotonin reuptake site
  IC50: 0.11 µM
5-HT1 receptors
  IC50: 6.9 µM
5-HT1A receptors
  IC50: 9 µM
5-HT1B receptors
  IC50: 11 µM
5-HT1D receptors
  IC50: 6.4 µM
5-HT2 receptors
  IC50: 11 µM
5-HT2C receptors
  IC50: 1.6 µM
5-HT3 receptors
  IC50: 0.001 µM
mouse
  Number of transfers, percentage compared with the control group: +76%
mouse; *p < 0.5
  Time spent in the illuminated cage, percentage compared with the control group: +92%
